{
  "source": "patent US20020184551A1",
  "about": "“Process for the preparation of deactivated rice bran lipase” (COUNCIL OF SCIENTIFIC & INDUSTRIAL RESEARCH, priority 2001, published 2002)",
  "key": {"[1]": {"test_system": "rice bran lipase", "description": "The enzyme solution containing different concentrations of ligands was passed through a sephadex G25 column which was previously equilibrated with the elution buffer. The protein eluting immediately after the void volume was collected and assayed for the activity.\nThe enzyme was also checked for reversibility of its original activity after removal of ligands by gel filtrations on Sephadex G-25 column."}, "[2]": {"test_system": "rice bran lipase", "conditions": "lipase 2 mg/ml, substrate 5% w/v, CaCl2 0.1 M", "experimental": "To approximately 2 mg of rice bran lipase in 0.05 M sodium phosphate buffer, pH 7.4 is added different concentrations of ligands ranging from 1:10 to 1:1500 mole to mole ratio of protein to ligand and incubated for 1 h at30° C. in Innova™ 4000 incubator shaker at 150 rpm. The reaction mixture was checked for enzyme activity by pH-stat method using Mettler Toledo DL12 titrator using 5% solution of triacetin or tributyrin as substrate. Respective blank solutions where the enzyme was inactivated by the addition of distilled alcohol was also used. The activity was expressed in terms of control activity as microequivalents of alkali consumed per mg of protein per hour.\nTo approximately 2 mg of rice bran lipase in 0.05 m sodium phosphate buffer, pH 7.4 is added different concentrations of ligand ranging from 1:10 to 1:1500 on a mole to mole ratio and incubated fpr 1 hr at 30° C. in Innova™ 4000 incubator shaker at 150 rpm. The reaction mixture was checked for enzyme activity by pH start method using mettler Toledo DL 12 titrator using 5% solution of triacetin or tributyrin as substrate. Respective blank solutions where the enzyme was inactivated by the addition of distilled alcohol was also used. The activity was expressed in terms of control activity as micro equivalent of alkali consumed per mg of protein per hour."}},
  "note": "Like-named read-outs stand apart in the source and are kept apart here.",
  "data": [
    {"substance": "benzene boronic acid [ligand]", "values": [
      {"measurement": "reversibility of enzyme activity after removal of ligand", "setting": "[1]; 1:10 ratio, Sephadex G-25 column chromatography", "value": "able to recover the initial activity"},
      {"measurement": "reversibility of enzyme activity after removal of ligand", "setting": "[1]; 1:1500 mole to mole ratio, gel filtration on Sephadex G-25 column", "value": "recovered almost its original activity"},
      {"measurement": "loss of initial activity of rice bran lipase", "setting": "[2]; 1:10 mole to mole ratio of protein to ligand", "value": 35, "unit": "%"},
      {"measurement": "loss of initial activity of rice bran lipase", "setting": "[2]; 1:1500 mole/mole protein to ligand", "value": "~77", "unit": "%"}
    ]}
  ]
}
